For one series, the system named is HEK cells. Nature of the series: Internalization of peptides on phage by confocal microscopy. The format is cell-based. The following applies: peptide displayed on phage, compared with ORD 5 phage pools. An excerpt: Confocal microscopy was used to investigate the internalization and cytoplasmic localization of the selected peptides on phage. First, we used the phage pool. […] Some of these peptides had been identified from the selection against all three cell lines and some were cell-type selective. […] Representative images showing different internalization levels of NNJA peptides on phage were shown in Supplementary Fig. S6. Confirmation of internalization for select peptides was obtained using the same approach in Caco2 cells (Supplementary Figs. S7, S8).
Cells were fixed with 4% paraformaldehyde (PFA) on ice for 20 min after the washing steps. Fixed cells were washed with PBS for three times to remove any excess PFA, and followed by 1 h blocking in 3% bovine serum albumin (BSA) in Tris buffer saline (TBS) with 0.2% triton X-100, and antibodies staining in TBS with 0.2% triton X-100. Primary antibodies were incubated with cell samples overnight at 4 °C. Following PBS washes, species-specific Alexa Fluor 488, Alexa Fluor 568, and/or Alexa Fluor 647-coupled secondary antibodies were used for signal detection. Imaging data collection was conducted on an LSM800 (Zeiss) confocal microscope, using a 40× (NA 1.1 W LD C-Apochromat, Zeiss) objective. Controls treated with secondary antibody were shown negative or undetectable signal.

The test system of a further series is Caco2 cells. The settings on record: peptide displayed on phage PIII, streptavidin-HRP on pIX; n = 2. The method, then:
(§1) We further evaluated the ability of NNJA peptides on phage to deliver functional groups into HEK-239 and CaCo2 cells by displaying an Avi-tag peptide on the minor coat protein pIX. Post biotinylation of Avi-tag by BirA, streptavidin-HRP was added to phage, forming a phage-protein complex (Avi[bio]/CPP-SA-HRP).
(§2) A randomly picked peptide ([…]) from the naïve library was incorporated in the setting and served as one of the negative controls. The method was described previously. Cell viability was evaluated in a replicated experimental group under the same assay condition using CellTiter-Glo luminescent cell viability assay from Promega.

Another series has as its system HEK-239 cells. As to the kind of experiment: Double-displayed phage carrying streptavidin-HRP, cellular uptake detected with TMB. It is filed as cell-based. The settings on record: peptide displayed on phage PIII, streptavidin-HRP on pIX; n = 2. The method, then: as §1, §2

GRKKRRQRRRPQ [Tat48–60, classic CPP]: in the series on HEK cells, the “phage internalization in HEK cells, M13 antibody signal” value is reported as “lower signal intensity”.
On to “TVSRELTPL (phage displayed) [random peptide]”, for which the “cellular uptake of phage-protein complex (Avi[bio]/CPP-SA-HRP), TMB signal, CaCo2 cells” value in the series on Caco2 cells is recorded as “minimum signal”. Further, the “cellular uptake of phage-protein complex (Avi[bio]/CPP-SA-HRP), TMB signal, HEK-239 cells” value with HEK-239 cells is “minimum signal”.

For the origin of these results see PMC11167021, “Discovery of a new class of cell-penetrating peptides by novel phage display platform” (Scientific Reports, 2024).
